Measurements published in PubChem BioAssay (NCI).
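Briefly, cells in 96-well plates were exposed to five compound concentrations for 48 h, and endpoints were estimated by linear interpolation. GI50 marks 50% less growth. TGI: concentration producing complete growth inhibition.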

Key:
Assay in all cases: DTP human tumour cell line panel, 48 h
MDA-MB-435 = system: MDA-MB-435
KM12 colon = system: KM12 colon
HS 578T breast = system: HS 578T breast
U251 CNS = system: U251 CNS
TK-10 renal = system: TK-10 renal
ACHN renal = system: ACHN renal
SF-268 CNS = system: SF-268 CNS
HCT-15 colon = system: HCT-15 colon
MOLT-4 leukemia = system: MOLT-4 leukemia
A498 renal = system: A498 renal

| SMILES | GI50 (MDA-MB-435) | TGI (MDA-MB-435) | GI50 (KM12 colon) | TGI (KM12 colon) | GI50 (HS 578T breast) | TGI (HS 578T breast) | GI50 (U251 CNS) | TGI (U251 CNS) | GI50 (TK-10 renal) | TGI (TK-10 renal) | GI50 (ACHN renal) | TGI (ACHN renal) | GI50 (SF-268 CNS) | TGI (SF-268 CNS) | GI50 (HCT-15 colon) | TGI (HCT-15 colon) | GI50 (MOLT-4 leukemia) | TGI (MOLT-4 leukemia) | TGI (A498 renal) | GI50 (A498 renal) |
| --- | --- | --- | --- | --- | --- | --- | --- | --- | --- | --- | --- | --- | --- | --- | --- | --- | --- | --- | --- | --- |
| CC(C)(C)CC(C)(C)c1ccc(OCCOCCSC(=N)N)cc1 | 1.51 µM | 2.84 µM | 1.78 µM | 3.33 µM | 2.28 µM | 6.14 µM | 1.65 µM | 3.04 µM | 2.47 µM | 5.19 µM | 1.72 µM | 3.22 µM | 3.58 µM | 12.5 µM | 1.8 µM | 3.85 µM | 2.35 µM | 6.17 µM |  |  |
| CCOC(=O)C(C)(C)Oc1ccc2c(-c3ccc(Cl)cc3)cc(=O)oc2c1 |  |  |  |  |  |  |  | > 100 µM |  | > 100 µM |  | > 100 µM |  | > 100 µM |  | > 100 µM |  | > 100 µM | > 100 µM |  |
| CN(O)C(=O)Cc1ccccc1 |  |  |  | > 100 µM |  |  |  | > 100 µM |  | > 100 µM |  | > 100 µM |  | > 100 µM |  |  |  | > 100 µM |  |  |
| c1ccc(-c2nc(N3CCNCC3)c3nc(-c4ccccc4)oc3n2)cc1 | 1.79 µM | 3.22 µM | 1.91 µM | 3.6 µM | 1.87 µM | 4.11 µM |  |  | 1.67 µM | 3.32 µM | 1.71 µM | 3.09 µM | 1.73 µM | 3.46 µM | 1.66 µM | 3.18 µM |  |  | 2.76 µM | 1.42 µM |
| O=C(/C=C/c1cccc(Cl)c1)c1ccc(Cl)cc1Cl | 8.31 µM | 16.8 µM | 9.76 µM | 21.6 µM | 13.2 µM | 40.1 µM | 8.37 µM | 21.1 µM | 8.8 µM | 18.8 µM | 15.3 µM | 38.4 µM | 10.2 µM | 25.1 µM | 12.2 µM | > 50 µM |  |  | 27.7 µM | 9.71 µM |
| Cc1cc(C)c(C(=O)OC(c2ccccc2)C(c2ccccc2)N2CCOCC2)c(C)c1 (stereo not given) |  |  |  | > 100 µM |  |  |  | > 100 µM |  | > 100 µM |  | > 100 µM |  | > 100 µM |  | > 100 µM |  | > 100 µM | > 100 µM |  |
| CC1=C2C(c3ccccc3)(c3ccccc3)C3C=CC2(C=N3)N(C(=O)NC2CCCCC2)C1=O (stereo not given) |  |  |  | 32.1 µM |  |  |  | 30.6 µM |  |  |  | 33.8 µM |  | 34.7 µM |  | 30.4 µM |  | 35.8 µM | 31.6 µM |  |
| COc1ccccc1/C=C\c1cc(OC)c(OC)c(OC)c1 |  |  |  | > 100 µM |  |  |  | > 100 µM |  | > 100 µM |  | > 100 µM |  |  |  | > 100 µM |  | 98.6 µM | 54.7 µM |  |
| COc1ccc(/C=C2\N=C3SC=C(N)N3C2=O)cc1 | 0.808 µM | 6.06 µM | 3.08 µM | 15.6 µM | 1.19 µM | 5.56 µM | 1.32 µM | 5.49 µM |  |  | 0.711 µM | 2.43 µM | 1.82 µM | 7.29 µM | 0.817 µM | 3.98 µM | 0.28 µM | 2.91 µM | 1.37 µM | 0.177 µM |
